Measured values as given in patent publication US20180153826A1, “MATERIALS AND METHODS FOR THE TREATMENT OF CYSTIC FIBROSIS” (UNIVERSITY OF FLORIDA RESEARCH FOUNDATION, INC., priority 2015, published 2018).

Tests used:
Set-up in all cases: species or system rat
[1] = test system: HCO3^− secretion by colonic mucosa; assay: Secretagogue (forskolin)-induced HCO3^− secretion, lumen Cl^−-containing Ringer; settings: 10 μM serosa, added after forskolin 500 nM
Method: (§1) Stripped mucosal sheets were mounted into Ussing chambers (window area=0.3-0.5 cm^2, Physiologic Instruments, San Diego, Calif.). The mucosal side of tissue was bathed with an unbuffered HCO3^−-free Cl^− Ringer solution (see Table 2 for detailed composition) circulated by a gas lift with 100% O2 while the serosal side was bathed with buffered Cl^− Ringer solution (pH 7.4) that contained 25 mM HCO3^− and gassed with 5% CO2/95% O2. Each side contained 3-5 ml of solution and the temperature of the solution was adjusted to and maintained at 37° C. by heated water-jacketed reservoirs. […]
(§2) Two types of approaches were used in the measurement of colonic HCO3^− secretion, namely, measurement of lumen pH or pH stat titration of net alkalinization by colonic mucosa. […] The amount of the acid delivered per unit time per surface area was used to quantitate HCO3^− secretion by the mucosa. Measurements were recorded continuously and mean values for consecutive 5 or 10 min periods were averaged. The rate of HCO3^− secretion (JHCO3) is expressed as μEq/hr/cm^2. The short-circuit current (Isc) was measured in microamperes (μA) and converted into μEq/hr/cm^2. Tissue resistance (R, Ω cm^2) was calculated from Ohm's law. […]

[2] = test system: HCO3^− secretion by colonic mucosa; assay: Acid-induced HCO3^− secretion (lumen pH recovery); settings: 10 μM, serosa
Method: as §1, §2

[3] = test system: HCO3^− secretion by colonic mucosa; assay: Basal HCO3^− secretion (pH stat JHCO3 and Isc, Ussing chamber)
Method: Experiments were performed using non-fasting male Sprague-Dawley rats and C57BL/6 mice. Rats weighting 100-400 g were obtained from Charles River Laboratories. Mice lacking CaSR expression in intestinal epithelial cells (CaSR^−/−) and their CaSR^+/+ littermates were bred and maintained. CaSR^−/− mice were generated as previously described. Briefly, CaSR flox/flox mice were bred with transgenic mice expressing Cre Recombinase under the control of the villin 1 promoter and genotyped prior to all experiments after an approximate 10-12 generations. Mice were used at 5-10 weeks of age. Animals were fed and maintained on regular chow (Harlan) with free access to water before sacrifice. Animals were sacrificed with standard CO2 inhalation followed by cervical dislocation. The colons were isolated, cut open along the mesenteric border into a flat sheet, and flushed with ice-cold Ringer solutions. […]
Two types of approaches were used in the measurement of colonic HCO3^− secretion, namely, measurement of lumen pH or pH stat titration of net alkalinization by colonic mucosa. […] The amount of the acid delivered per unit time per surface area was used to quantitate HCO3^− secretion by the mucosa. Measurements were recorded continuously and mean values for consecutive 5 or 10 min periods were averaged. The rate of HCO3^− secretion (JHCO3) is expressed as μEq/hr/cm^2. The short-circuit current (Isc) was measured in microamperes (μA) and converted into μEq/hr/cm^2. Tissue resistance (R, Ω cm^2) was calculated from Ohm's law.
Two adjacent sheets of mucosa from each colon were mounted into two Ussing chambers and bathed luminally with HCO3^−-free Cl^− Ringer solution and serosally with HCO3^−-containing Cl^− Ringer solution. After 15 to 30 min, when Isc and JHCO3 had stabilized, the CaSR agonist, R568 was added to the serosal or mucosal side of tissue, and changes in Isc and JHCO3 during the 15-30 min period ensuing after the addition of the agonist were determined.

[4] = test system: ENaC; assay: ENaC activity as amiloride-sensitive bumetanide-insensitive Isc, weanling distal colon; settings: 10 μM; 2-3 week old rat distal colon
Method: FIG. 17. The inhibitory effect of […] on ENaC was examined electrophysiologically by measuring amiloride-sensitive short-circuit current responses in the presence or absence of […]. Weanling infant distal colonic mucosa, which expresses highest activity of ENaC, is employed and mounted in Ussing chamber. FIGS. 19A-19C. […] Here, the activity of ENaC is measured as amiloride-sensitive bumetanide-insensitive Isc. […] FIGS. 20A-20C. […] The activity of ENaC was measured as amiloride-sensitive bumetanide-insensitive Isc. […] Secretory Cl current is mediated by apical CFTR. This Cl secretory Isc is sensitive to bumetanide, applied to the basolateral side of the epithelium. There, bumetanide inhibits Cl entry from blood into the cell; thus, in the presence of bumetanide, the secretory Cl current is eliminated. Absorptive Na current is mediated by apically located epithelial Na channel (ENaC). This latter current is particularly high in this weanling age and is sensitive to amiloride, when it is applied luminally.

For `COc1cccc([C@@H](C)NCCCc2ccccc2Cl)c1.Cl` [R568, 2-Chloro-N-[(1R)-1-(3-methoxyphenyl)ethyl]-benzenepropanamine hydrochloride], the “effect on forskolin-induced HCO3^− secretion” value [1] was “did not increase but rather decreased”, the “acid-induced HCO3^− secretion (pH recovery rate)” value [2] was “transient but significant stimulation” and the “basal JHCO3 response” value ([3]; 10 μM, added to serosa) was “significantly stimulated”. The “Isc in presence of R568” value ([3]; basal, absence 1.36±0.40, n=5, p>0.05) was 1.48±0.44 μEq/hr/cm^2, the “effects of R568 compared with reduced Ca^2+o” value ([3]; under normal Ca^2+o condition) was “qualitatively similar, albeit with a slightly less pronounced effect” and the “bumetanide-insensitive amiloride-inhibitable ENaC-mediated basal Isc” value [4] was “inhibited”.
